Measured values as given in US10597388B2, “Pyridazinone herbicides” (FMC CORPORATION, priority 2014, dated 2020).

Experiments:
Test in all cases: Test E greenhouse herbicide test, pre- and postemergence
Format in all cases: in vivo
[1] = system: field bindweed (Convolvulus arvensis)
Procedure, shortened: (§1)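 Scores (0–100, visual, vs controls) reflect greenhouse growth of 14 to 21 d after treatment. Application was pre-emergence to silt loam or post-emergence at the 1- to 4-leaf stage.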

[2] = system: momingglory (Ipomoea coccinea); conditions: Preemergence
Procedure, shortened: as §1

[3] = system: barnyardgrass (Echinochloa crus-galli)
Procedure, shortened: as §1

[4] = system: beggarticks (hairy beggarticks, Bidens pilosa)
Procedure, shortened: as §1

[5] = system: goosegrass (Eleusine indica); conditions: Preemergence
Procedure, shortened: as §1

[6] = system: Italian ryegrass (Lolium multiflorum)
Procedure, shortened: as §1

[7] = system: surinam grass (Brachiaria decumbens); conditions: Preemergence
Procedure, shortened: as §1

[8] = system: crabgrass, large (large crabgrass, Digitaria sanguinalis); conditions: Preemergence
Procedure, shortened: as §1

[9] = system: corn (Zea mays)
Procedure, shortened: as §1

[10] = system: dayflower (Virginia (VA) dayflower, Commelina virginica)
Procedure, shortened: as §1

[11] = system: nightshade (eastern black nightshade, Solanum ptycanthum); conditions: Preemergence
Procedure, shortened: as §1

[12] = system: panicum, fall (fall panicum, Panicum dichotomiflorum)
Procedure, shortened: as §1

[13] = 62 g ai/ha, Postemergence, scale 0 to 100 (0 no effect, 100 complete control)
[14] = 62 g ai/ha, Preemergence, scale 0 to 100 (0 no effect, 100 complete control)
[15] = 125 g ai/ha, Postemergence, scale 0 to 100 (0 no effect, 100 complete control)
[16] = 125 g ai/ha, Preemergence, scale 0 to 100 (0 no effect, 100 complete control)
[17] = 250 g ai/ha, Postemergence, scale 0 to 100 (0 no effect, 100 complete control)
[18] = Postemergence, 31 g ai/ha, visual, scale 0 no effect to 100 complete control
[19] = Preemergence, 250 g ai/ha, visual, scale 0 no effect to 100 complete control
[20] = 62 g ai/ha, scale 0 to 100 (0 no effect, 100 complete control)
[21] = 125 g ai/ha, scale 0 to 100 (0 no effect, 100 complete control)
[22] = 31 g ai/ha, scale 0 to 100, 0 no effect, 100 complete control
[23] = 250 g ai/ha, visual, scale 0 no effect to 100 complete control
[24] = Preemergence, 31 g ai/ha, scale 0 to 100, 0 no effect, 100 complete control

Cc1cc(C)c2sc(C)c(-c3c(OC(=O)OCCCl)c(C)nn(C)c3=O)c2c1 [Compound 85]
Plant response rating, Field Bindweed [1, 13]: 50
Plant response rating, Field Bindweed [1, 14]: 5
Plant response rating, Field Bindweed [1, 15]: 60
Plant response rating, Field Bindweed [1, 16]: 20
Plant response rating, Field Bindweed [1, 17]: 90
Plant response rating, Field Bindweed [1, 18]: 50
Plant response rating, Field Bindweed [1, 19]: 95
Plant response rating, Morningglory [2, 20]: 30
Plant response rating, Morningglory [2, 21]: 50
Plant response rating, Morningglory [2, 22]: 25
Plant response rating, Morningglory [2, 23]: 100
Plant response rating, Barnyardgrass [3, 13]: 30
Plant response rating, Barnyardgrass [3, 14]: 0
Plant response rating, Barnyardgrass [3, 15]: 20
Plant response rating, Barnyardgrass [3, 16]: 30
Plant response rating, Barnyardgrass [3, 17]: 30
Plant response rating, Barnyardgrass [3, 18]: 20
Plant response rating, Barnyardgrass [3, 24]: 0
Plant response rating, Barnyardgrass [3, 19]: 35
Plant response rating, Beggarticks [4, 13]: 100
Plant response rating, Beggarticks [4, 14]: 100
Plant response rating, Beggarticks [4, 15]: 100
Plant response rating, Beggarticks [4, 16]: 100
Plant response rating, Beggarticks [4, 17]: 100
Plant response rating, Beggarticks [4, 18]: 90
Plant response rating, Beggarticks [4, 24]: 90
Plant response rating, Beggarticks [4, 19]: 100
Plant response rating, Goosegrass [5, 20]: 5
Plant response rating, Goosegrass [5, 21]: 5
Plant response rating, Goosegrass [5, 22]: 5
Plant response rating, Goosegrass [5, 23]: 20
Plant response rating, Ryegrass, Italian [6, 13]: 60
Plant response rating, Ryegrass, Italian [6, 14]: 80
Plant response rating, Ryegrass, Italian [6, 15]: 75
Plant response rating, Ryegrass, Italian [6, 16]: 95
Plant response rating, Ryegrass, Italian [6, 17]: 80
Plant response rating, Ryegrass, Italian [6, 18]: 50
Plant response rating, Ryegrass, Italian [6, 24]: 80
Plant response rating, Ryegrass, Italian [6, 19]: 100
Plant response rating, Surinam Grass [7, 20]: 70
Plant response rating, Surinam Grass [7, 21]: 70
Plant response rating, Surinam Grass [7, 22]: 60
Plant response rating, Surinam Grass [7, 23]: 90
Plant response rating, Crabgrass, Large [8, 20]: 0
Plant response rating, Crabgrass, Large [8, 21]: 0
Plant response rating, Crabgrass, Large [8, 22]: 0
Plant response rating, Crabgrass, Large [8, 23]: 25
Plant response rating, Corn [9, 13]: 0
Plant response rating, Corn [9, 14]: 0
Plant response rating, Corn [9, 15]: 0
Plant response rating, Corn [9, 16]: 0
Plant response rating, Corn [9, 17]: 5
Plant response rating, Corn [9, 18]: 0
Plant response rating, Corn [9, 24]: 0
Plant response rating, Corn [9, 19]: 0
Plant response rating, Dayflower, VA [10, 13]: 60
Plant response rating, Dayflower, VA [10, 14]: 0
Plant response rating, Dayflower, VA [10, 15]: 60
Plant response rating, Dayflower, VA [10, 16]: 30
Plant response rating, Dayflower, VA [10, 17]: 80
Plant response rating, Dayflower, VA [10, 18]: 50
Plant response rating, Dayflower, VA [10, 24]: 0
Plant response rating, Dayflower, VA [10, 19]: 75
Plant response rating, Nightshade [11, 20]: 95
Plant response rating, Nightshade [11, 21]: 100
Plant response rating, Nightshade [11, 22]: 95
Plant response rating, Nightshade [11, 23]: 100
Plant response rating, Panicum, Fall [12, 13]: 75
Plant response rating, Panicum, Fall [12, 14]: 85
Plant response rating, Panicum, Fall [12, 15]: 80
Plant response rating, Panicum, Fall [12, 16]: 98
Plant response rating, Panicum, Fall [12, 17]: 95
Plant response rating, Panicum, Fall [12, 18]: 75
Plant response rating, Panicum, Fall [12, 24]: 95
Plant response rating, Panicum, Fall [12, 19]: 100
